# From a melting point compilation (Tetko et al.; mined from patent text by program, amines drawn as free bases though some values may be those of a salt)
row,Structure (SMILES),melting point [°C]
1,O=C(Nc1cc(C(=O)O)cc(-c2ccccc2)c1)OCc1cc2cc(-c3ccccc3)ccc2o1,174 to 175
2,CCCCCCCCCCOc1ccc(-c2ccc(C(C)=O)cc2)cc1,102 to 104
3,CCOCc1nc2c(N)nc3c(c2n1NCCCNC(C)=O)CCCC3,198 to 200
4,CC(C)(C)C(=O)Oc1ccc(C(=O)c2ccc(OC(=O)C(C)(C)C)cc2OC(=O)C(C)(C)C)c(OC(=O)C(C)(C)C)c1,154 to 156
5,CC(C)NC(=O)c1c[nH]c2ncc(-c3nn(C)c4cc(Cl)cc(F)c34)nc12,347 to 349
6,N#Cc1ccc(-c2ccc(OC3SCC(O)C(O)C3O)cn2)cn1 (stereo not drawn),167
7,CC(=O)OCC(=O)C1=CCC2C3CCC4=CC(=O)CCC4(C)C34OC4CC12C (stereo not drawn),129 to 130
8,O=C1NC(=O)C2(N1)C(=O)N(Cc1cc(Cl)c(Br)c(Cl)c1)c1ccccc12 (stereo not drawn),290 to 292
9,CCCCCCCCc1ccc(C(=O)C2CC2C(=O)O)cc1 (stereo not drawn),45 to 47
10,CC(C)(CO)NC(=O)c1nn(-c2ccc(F)cc2F)c2c1C1CCC2CC1,128 to 131
11,COc1ccc2c(c1)C(C(=O)O)CCO2 (stereo not drawn),97.4
12,COc1cc(Nc2c(C#N)cnc3cc(-c4cccc([N+](=O)[O-])c4)ccc23)c(Cl)cc1Cl,287 to 288
13,Clc1c2ccccc2nc2c1c(CBr)nn2-c1ccccn1,203 to 205
14,CCOCc1nc2c(N)nc3c(c2n1CC1(O)CCCC1)NCCC3,207 to 208
15,Cc1cc(C)cc(C(=O)N[C@H](Cc2ccccc2)C(=O)N[C@@H](Cc2c[nH]c3ccccc23)C(=O)O)c1,95 to 98
16,CC1(C)CC(NC(=O)ON(Cc2ccccc2)Cc2ccccc2)CC(C)(CNC(=O)ON(Cc2ccccc2)Cc2ccccc2)C1 (stereo not drawn),139 to 146
17,CCNC(=O)n1ncc2ccc(OC(C)=O)c(CC3CO3)c21 (stereo not drawn),110 to 111
18,CCCN1CC(Nc2ccc3c(c2)CCO3)CC2c3cccc4c3c(cn4C)CC21 (stereo not drawn),137 to 138
19,CCOC(=O)COc1ccc(C(=O)Nc2ccccc2S(=O)(=O)c2ccccc2-c2nnn[nH]2)cc1,162 to 163
20,O=C(c1ccc(Cl)c([N+](=O)[O-])c1)c1ccccn1,98 to 99
21,CC12CCC(C(=Cc3ccc(O)cc3)C1=O)C2(C)C (stereo not drawn),220
22,COc1cncnc1N1CCN(C(=O)OC(C)(C)C)CC1C (stereo not drawn),70 to 72
23,CSc1ccc(Oc2ccc([N+](=O)[O-])cc2[N+](=O)[O-])cc1,119 to 120
24,ClCc1coc(C=C(c2ccccc2)c2ccccc2)n1,107 to 108
25,COc1cc2ncnc(Oc3cccc(Cl)c3)c2cc1OC,152 to 153

row,Structure (SMILES),melting point [°C]
1,COc1ccc(-c2[nH]ccc2S(=O)(=O)C(F)(F)F)cc1,138 to 140
2,CCOc1c(C#N)sc(NC(C)=O)c1C#N,267 to 268
3,Cc1cccc(C)c1C(=O)NC(C)(C)C,134 to 136
4,Cc1nc(N2CCc3ccccc3CC2)c(C#N)c(=O)n1N(CC(F)(F)F)C(=O)OC(C)(C)C,86 to 88
5,CCOC(=O)C(Cc1ccc(OCCN2COc3ccccc3C2=O)cc1)OCC (stereo not drawn),76 to 78
6,Cc1ccc(C(=O)C(=O)c2ccncc2)cc1,65
7,CCN1CCc2ccc(C(=O)CCC(=O)N3CCC(c4ccc(Cl)cc4)CC3)cc2CC1,156 to 157
8,O=S(=O)(c1ccc(C(F)(F)F)cc1)N1CCCC1c1ccc(F)cc1 (racemic),85
9,COc1ccccc1C1C(C#N)=C(C(C)C)Nc2n[nH]cc21 (stereo not drawn),> 250
10,CC(C)(C)C(=O)OC(COc1cccc2[nH]nnc12)CN1CCC(COc2ccccc2)CC1 (stereo not drawn),131 to 133
11,COc1cc2c(cc1-c1ccc(F)cc1C)NC(=O)CC(c1cccc(-n3ccnc3)c1)=N2,225
12,CCc1ccc(OCCCCCN2CCN(c3nccs3)CC2)cc1,125 to 127
13,O=C1C2=C(CCCC2)C(=O)C1=C1C=CNC=C1,258 to 261
14,O=C(Oc1cc(OC(=O)c2ccccc2)c(C(=O)C=Cc2ccc(O)cc2)c(OC(=O)c2ccccc2)c1)c1ccccc1,198 to 200
15,COc1ccc(CN(C)CCCSc2ccc(NC(=O)c3cccc4c(=O)c5ccccc5sc34)cc2)cc1OC,148
16,CCCCCCCc1ccc(NC(=O)Nc2ccccc2C(=O)NC2CCN(C(c3ccccc3)c3ccccc3)CC2)cc1,173 to 175
17,CC(C)(c1ccccc1)c1ccc(N)c([N+](=O)[O-])c1,92 to 94
18,CON1CCCNC1=C[N+](=O)[O-],84 to 85
19,CCCc1nc2c(N)nc3ccc(-c4cccc(NC(C)=O)c4)cc3c2s1,242 to 245
20,O=C(Oc1ccc(Br)cc1)c1ccccc1,98 to 100
21,N#Cc1c(CNC(=O)c2ccc(-n3cccc3)cc2)nn(-c2ccc(Cl)cc2Cl)c1-c1ccc(Cl)cc1,121
22,Cc1cc(-c2csc(-c3cccc(C(=O)O)c3)n2)c(C)o1,174 to 175
23,COc1ccc([C@]2(O)OCC(C)(C)N[C@H]2C)cc1,170 to 172
24,S=C=NCc1cc(-c2ccccc2)no1,66
25,O=C(c1ccccc1)c1ccc(OCCBr)cc1O,87 to 89.5

row,Structure (SMILES),melting point [°C]
1,CCOC(=O)C1Nc2ccccc2S(=O)(=O)n2cccc21 (stereo not drawn),131 to 134
2,Cn1c(-c2ccc(-c3cccnc3)cc2)cnc1[C@H](Cc1ccccn1)N(C=O)c1cc2cc(Cl)ccc2o1,158 to 160
3,CN(C)C(=O)CCc1c(-c2ccccc2)n(C)c(=O)c2ccccc12,166
4,CC(C)(C)[Si](C)(C)OC1CC(=O)c2cc(F)ccc21 (stereo not drawn),56 to 58
5,CCN(C)C1CCCN(C(=O)c2ccc(NC(=O)c3ccccc3C)cc2)c2ccccc21 (stereo not drawn),192 to 193
6,O=S(=O)(c1ccccc1)N1C[C@@H](c2c[nH]c3ccccc23)[C@H](c2cn3c4c(cccc24)CCC3)C1,115 to 125
7,CN(C)Cc1cc(C(N)=O)ccc1OCCN(C)Cc1ccc(Cl)cc1,123 to 124
8,CCOC1CC2CCC3C4CCC(C(C)=O)C4(C)CC(NC(=O)OCC(Cl)(Cl)Cl)C3C2(C)CC1OCC (stereo not drawn),68 to 71
9,CC(C#N)c1ccc(O)c([N+](=O)[O-])c1 (stereo not drawn),78 to 81
10,CCOC(=O)C1=Cc2cc(Cl)cc(CO[N+](=O)[O-])c2OC1C(F)(F)F (stereo not drawn),53
11,CCOC(=O)c1c(Cl)c2ccccc2[nH]c1=O,186
12,O=C(Nc1cccc(Cl)c1C(=O)O)c1cccc(F)c1,216 to 219
13,Cc1nc(-c2ccc3ccc(Cn4c(C(C)C)nc5cc[nH]c(=O)c54)cc3c2)no1,214 to 215
14,CC(C)n1c(=S)nc(-c2ccccc2)c2cc3c(cc21)OCO3,202 to 205
15,Cc1cnc(CCCC#N)c(O)c1,132
16,CCc1ccc2c(c1)C=Cc1cc(C)ccc1C2c1cn(-c2ccnc(N3CC(C(=O)Nc4nnn[nH]4)C3)n2)c(=O)[nH]c1=O (stereo not drawn),252
17,COc1ccc(-c2ccc3nnn(Cc4ccc5ncccc5c4)c3n2)cc1,144 to 146
18,CC(=O)NC1CCN(c2cccc(Br)n2)CC1,158 to 160
19,CCCSN(C)C(=O)Nc1ccc(Cl)c(Cl)c1,40
20,COc1cc2scc(C(=O)Nc3cccnc3)c2cc1Br,160 to 161
21,C1CSC(SSCCSSC2=NCCS2)=N1,102
22,CC(C)(C)[Si](C)(C)Oc1ccc2c3c1OC1C(C4OCCO4)CCC4(O)C(C2)N(CC2CC2)CCC314 (stereo not drawn),108 to 109
23,CC(C(N)=O)c1ccc2c(c1)C(=O)Cc1c(Cl)cccc1S2 (stereo not drawn),195 to 196
24,O=c1ccc(-c2cc(F)c(OC3CCN(C4CCC4)CC3)c(F)c2)n[nH]1,195 to 197
25,COc1ccccc1NC(=O)Nc1ncnc(Nc2ccccc2-c2ccccc2)n1,219

row,Structure (SMILES),melting point [°C]
1,CC#CCOc1ccc(S(=O)(=O)NC[C@@H](C(=O)NO)N2CCN(S(C)(=O)=O)CC2)cc1,150
2,COc1cc(OC)cc(-c2oc3ncnc(N4CCCCC4)c3c2-c2ccccc2)c1,152 to 153
3,CC1(C)NC(=O)N(c2ccc(Oc3ccccc3)cc2)C1=O,165
4,CCc1cc(-c2[nH]c3ccccc3c2C)cc(CC)c1OC,95.7 to 96.1
5,Nc1cc(CN2CCC2)cc(C(F)(F)F)c1,60 to 61
6,CCCC(=O)c1cc(OC)c(O)c([N+](=O)[O-])c1,92 to 93
7,CCOC(=O)C(=CNC1CC1)C(=O)c1cc(Cl)c(F)c(Cl)c1F,71 to 74
8,CCCNC(=O)Nc1ccccc1C(=O)OCC,98 to 99
9,O=C(O)[C@@H]1CSC(=O)N1Cc1ccccc1,95 to 97
10,Cc1c(-c2ccccc2)oc2c(S)cccc2c1=O,115 to 118
11,N#Cc1c(SC(F)(F)F)c(NC(=O)C(F)(F)F)n(-c2c(Cl)cc(C(F)(F)F)cc2Cl)c1Cl,190
12,CCc1nnc(CCCOc2c(C)cc(N)c(C=NO)c2C)s1,158 to 160
13,Cc1ccc(CCCNCC(O)c2cccc(C(F)(F)F)c2)cc1 (stereo not drawn),52 to 55
14,Cc1nc2c(N)nc3ccccc3c2n1CCOCC#Cc1ccccc1,143
15,[N-]=[N+]=NCc1cc(C(F)(F)F)cc(C(F)(F)F)c1,30 to 32
16,C=C(CC(=O)Nc1cc(Cl)cc(Cl)c1)C(=O)OCCCC,69.5
17,Cc1ccc(S(=O)(=O)NC(=O)Nc2cc(C)c(S(=O)(=O)C[N+](=O)[O-])c(C)c2)cc1,150 to 155
18,COc1cc(NOC(C)=O)cc(OC)c1,163 to 165
19,CCCc1c(OCCCCSc2nnc(SCC(=O)O)s2)ccc(C(C)=O)c1O,123 to 124
20,CON(C)C(=O)c1cccc(-c2nc3sccn3c2-c2ccnc(N[C@@H]3CCCN(S(=O)(=O)c4ccc(Cl)cc4)C3)n2)c1,114 to 115
21,O=S(=O)(CCl)c1ccc(O)cc1,110
22,Cc1c(-c2cccnn2)ssc1=S,193
23,CC(C)(C)OC(=O)N1CCc2c(n(CCOc3ccccc3)c3c(Cl)ccc(Cl)c23)CC1,132 to 133
